Experimental data reported in PubChem BioAssay AID256 (DTP/NCI, 2004).
Values joined by “and” are separate entries in the source; they are usually repeats but may differ in a detail not shown here. Identical values can stand only once. Inconclusive results and toxic doses are left out. Rule for the calls: active = survival T/C of 150% or more; inactive = T/C below 125% in these data.

Tested on: CD2F1 mice, L1210 leukemia ip, survival T/C
Test: NCI In Vivo Anticancer Drug Screen. Data for tumor model L1210 Leukemia (intraperitoneal) in CD2F1 (CDF1) mice
Settings: endpoint: mean survival time, higher = longer survival
Outline: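 Mice carrying a transplanted tumor received test compound or vehicle alone. The value is the measurement in the treated group divided by that in the vehicle-treated control group.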

[1] = dose: 100.0 mg/kg/injection, schedule: Q01DX001 (ip), vehicle: saline with Tween-80
[2] = dose: 200.0 mg/kg/injection, schedule: Q01DX001 (ip), vehicle: saline with Tween-80
[3] = dose: 100.0 mg/kg/injection, schedule: Q04DX003 (ip), vehicle: saline with Tween-80
[4] = dose: 200.0 mg/kg/injection, schedule: Q04DX003 (ip), vehicle: saline with Tween-80
[5] = dose: 100.0 mg/kg/injection, schedule: Q01DX009 (ip), vehicle: saline with Tween-80
[6] = dose: 200.0 mg/kg/injection, schedule: Q01DX009 (ip), vehicle: saline with Tween-80
[7] = dose: 400.0 mg/kg/injection, schedule: Q01DX009 (ip), vehicle: saline with Tween-80
[8] = dose: 100.0 mg/kg/injection, schedule: Q04DX003 (ip), vehicle: saline sonified
[9] = dose: 100.0 mg/kg/injection, schedule: Q04DX002 (ip), vehicle: saline with Tween-80
[10] = dose: 200.0 mg/kg/injection, schedule: Q04DX002 (ip), vehicle: saline with Tween-80
[11] = dose: 100.0 mg/kg/injection, schedule: Q01DX001 (ip), vehicle: saline
[12] = dose: 400.0 mg/kg/injection, schedule: Q04DX002 (ip), vehicle: saline with Tween-80
[13] = dose: 100.0 mg/kg/injection, schedule: Q04DX003 (ip), vehicle: saline
[14] = dose: 200.0 mg/kg/injection, schedule: Q04DX003 (ip), vehicle: saline
[15] = dose: 400.0 mg/kg/injection, schedule: Q04DX003 (ip), vehicle: saline with Tween-80

Measured: T/C

S=C(Cc1ccccc1)N1CCOCC1
inactive: [1] 98 % of control | [2] 102 % of control | dose: 300.0 mg/kg/injection, schedule: Q01DX001 (ip), vehicle: saline with Tween-80 101 % of control

O=C(COc1ccc(Cl)c(Cl)c1)Nc1ccc[n+](Cc2cccc(Cl)c2S(=O)(=O)F)c1
inactive: [3] 97 % of control | [4] 105 % of control

CC(C)(C)ONC(=O)c1ccccc1Sc1ccccc1
inactive: [5] 101 % of control | [6] 98 % of control | [7] 97 % of control

Cc1cn(C2CC(OS(C)(=O)=O)C(COC(c3ccccc3)(c3ccccc3)c3ccccc3)O2)c(=O)[nH]c1=O (stereo not drawn)
inactive: dose: 12.5 mg/kg/injection, schedule: Q01DX005 (ip), vehicle: other 95 % of control | dose: 25.0 mg/kg/injection, schedule: Q01DX005 (ip), vehicle: other 90 % of control | dose: 50.0 mg/kg/injection, schedule: Q01DX005 (ip), vehicle: other 91 % of control | dose: 200.0 mg/kg/injection, schedule: Q01DX005 (ip), vehicle: other 91 % of control

O=C1NNC(=O)C2C3CCC(C3)C12 (stereo not drawn)
inactive: [8] 95 % of control | dose: 200.0 mg/kg/injection, schedule: Q04DX003 (ip), vehicle: saline sonified 89 % of control

CC1[N-]CCC[N-]CCC[N-]C(C)C2CCCC1[N-]2.[Ni+2].[O-][Cl+3]([O-])([O-])O (stereo not drawn)
inactive: dose: 50.0 mg/kg/injection, schedule: Q04DX002 (ip), vehicle: saline with Tween-80 104 % of control | [9] 101 % of control and 104 % of control | [10] 93 % of control

CCC(=O)NCCc1ccccc1
inactive: [5] 100 % of control | [2] 97 % of control | [6] 100 % of control | dose: 400.0 mg/kg/injection, schedule: Q01DX001 (ip), vehicle: saline with Tween-80 97 % of control

Nc1nc2c(ncn2-c2cccc(NC(=O)Nc3ccc(S(=O)(=O)F)c(Cl)c3)c2)c(=O)[nH]1 (tested in a mixture with another compound)
inactive: [1] 97 % of control | [2] 95 % of control

CC(=O)OC1CCC2(C)C(=CCC3C2CCC2(C)C3CC3OC4(CCC(C)CO4)C(C)C32)C1 (stereo not drawn)
inactive: dose: 100.0 mg/kg/injection, schedule: Q04DX003 (ip), vehicle: other 95 % of control | dose: 200.0 mg/kg/injection, schedule: Q04DX003 (ip), vehicle: other 94 % of control | dose: 400.0 mg/kg/injection, schedule: Q04DX003 (ip), vehicle: other 94 % of control

COC(=O)c1cccc2c1ccc1ccccc12
inactive: dose: 75.0 mg/kg/injection, schedule: Q01DX001 (ip), vehicle: saline 91 % of control | dose: 150.0 mg/kg/injection, schedule: Q01DX001 (ip), vehicle: saline 95 % of control

CC(=O)OCC(OC(C)=O)C(OC(C)=O)C(/C=N\Nc1ccccc1)=N/Nc1ccccc1 (stereo not drawn)
inactive: dose: 37.5 mg/kg/injection, schedule: Q01DX001 (ip), vehicle: saline with Tween-80 92 % of control | dose: 75.0 mg/kg/injection, schedule: Q01DX001 (ip), vehicle: saline with Tween-80 96 % of control | dose: 150.0 mg/kg/injection, schedule: Q01DX001 (ip), vehicle: saline with Tween-80 91 % of control

CC(C)(C)S(=O)O
inactive: [11] 101 % of control | dose: 200.0 mg/kg/injection, schedule: Q01DX001 (ip), vehicle: saline 94 % of control | dose: 400.0 mg/kg/injection, schedule: Q01DX001 (ip), vehicle: saline 100 % of control

Oc1c(F)c(F)c(-c2c(F)ccc(F)c2F)c(F)c1F
inactive: dose: 25.0 mg/kg/injection, schedule: Q01DX001 (ip), vehicle: saline with Tween-80 92 % of control | dose: 50.0 mg/kg/injection, schedule: Q01DX001 (ip), vehicle: saline with Tween-80 102 % of control | [1] 94 % of control

Nc1ccc2ccccc2c1-c1c(N)ccc2ccccc12
inactive: dose: 18.7 mg/kg/injection, schedule: Q04DX002 (ip), vehicle: saline with Tween-80 91 % of control | dose: 37.5 mg/kg/injection, schedule: Q04DX002 (ip), vehicle: saline with Tween-80 91 % of control | dose: 75.0 mg/kg/injection, schedule: Q04DX002 (ip), vehicle: saline with Tween-80 102 % of control

COc1cc2c(cc1OC)-c1nc(N)sc1CC2
inactive: [9] 107 % of control | [10] 98 % of control | [12] 103 % of control

CCCCN(CCCC)CCCC
inactive: [11] 93 % of control

CCSC(C(O)C(O)C(O)CO)n1cc(F)c(=O)[nH]c1=O (stereo not drawn)
inactive: dose: 12.5 mg/kg/injection, schedule: Q01DX005 (ip), vehicle: water 104 % of control | dose: 25.0 mg/kg/injection, schedule: Q01DX005 (ip), vehicle: water 105 % of control | dose: 50.0 mg/kg/injection, schedule: Q01DX005 (ip), vehicle: water 110 % of control | dose: 100.0 mg/kg/injection, schedule: Q01DX005 (ip), vehicle: water 105 % of control | dose: 200.0 mg/kg/injection, schedule: Q01DX005 (ip), vehicle: water 104 % of control

O=C1CSC(=S)N1/N=C/c1cc2c(cc1[N+](=O)[O-])OCO2
inactive: dose: 75.0 mg/kg/injection, schedule: Q01DX001 (ip), vehicle: other 102 % of control | dose: 300.0 mg/kg/injection, schedule: Q01DX001 (ip), vehicle: other 90 % of control

O=P(O)(O)c1ccc(I)cc1
inactive: dose: 50.0 mg/kg/injection, schedule: Q04DX003 (ip), vehicle: saline 94 % of control | [13] 94 % of control | [14] 98 % of control

CCCCSC(=O)Nc1ccccc1
inactive: [9] 95 % of control | [10] 92 % of control | [12] 92 % of control

CCCCC(Sc1nn(C2OC(COC(=O)c3ccccc3)C(OC(=O)c3ccccc3)C2OC(=O)c2ccccc2)c(=O)[nH]c1=O)C(=O)OCC (stereo not drawn)
inactive: dose: 12.5 mg/kg/injection, schedule: Q01DX005 (ip), vehicle: distilled water + Tween-80 101 % of control | dose: 25.0 mg/kg/injection, schedule: Q01DX005 (ip), vehicle: distilled water + Tween-80 95 % of control | dose: 50.0 mg/kg/injection, schedule: Q01DX005 (ip), vehicle: distilled water + Tween-80 97 % of control | dose: 100.0 mg/kg/injection, schedule: Q01DX005 (ip), vehicle: distilled water + Tween-80 95 % of control | dose: 200.0 mg/kg/injection, schedule: Q01DX005 (ip), vehicle: distilled water + Tween-80 94 % of control

COc1c(C)c2c(c(O)c1CCNc1ccc(S(N)(=O)=O)cc1)C(=O)OC2
inactive: [9] 100 % of control | [10] 96 % of control | [12] 100 % of control

O=CN(O)CC(=O)O.[Zn]
inactive: dose: 12.5 mg/kg/injection, schedule: Q04DX003 (ip), vehicle: saline 96 % of control | dose: 25.0 mg/kg/injection, schedule: Q04DX003 (ip), vehicle: saline 95 % of control

CCCCCC(C)C1(CCCC)NC(C)(C)CC(C)O1 (stereo not drawn)
inactive: [13] 95 % of control | [14] 90 % of control

Nc1ccc2cc3ccccc3cc2c1
inactive: dose: 12.5 mg/kg/injection, schedule: Q01DX009 (ip), vehicle: saline with Tween-80 104 % of control | dose: 25.0 mg/kg/injection, schedule: Q01DX009 (ip), vehicle: saline with Tween-80 104 % of control | dose: 50.0 mg/kg/injection, schedule: Q01DX009 (ip), vehicle: saline with Tween-80 95 % of control | [3] 109 % of control | [4] 111 % of control | [15] 94 % of control

C(=N/N=C/c1ccc2c(c1)OCO2)/c1ccco1
inactive: [3] 93 % of control | [6] 90 % of control | [4] 96 % of control | [7] 86 % of control | [15] 95 % of control

ClC1=NC(Cl)C(Cl)=N/C1=N\c1ncn[nH]1 (stereo not drawn)
inactive: dose: 25.0 mg/kg/injection, schedule: Q04DX003 (ip), vehicle: saline with Tween-80 96 % of control | dose: 50.0 mg/kg/injection, schedule: Q04DX003 (ip), vehicle: saline with Tween-80 95 % of control | [8] 93 % of control

N#CCC(=O)O
inactive: dose: 37.5 mg/kg/injection, schedule: Q04DX003 (ip), vehicle: saline 100 % of control | dose: 75.0 mg/kg/injection, schedule: Q04DX003 (ip), vehicle: saline 100 % of control

CCOc1ccc(CCN2CC34C=CC(O3)C(C(=O)O)C4C2=O)cc1OC (stereo not drawn)
inactive: [9] 95 % of control | [10] 95 % of control | [12] 91 % of control
